This passage reports T/C results from PubChem BioAssay AID256 (DTP/NCI, 2004).

In the assay the test system is CD2F1 mice, L1210 leukemia ip, survival T/C. Briefly: NCI In Vivo Anticancer Drug Screen. Data for tumor model L1210 Leukemia (intraperitoneal) in CD2F1 (CDF1) mice. Particulars: higher = longer survival. The method in brief: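 Tumor-bearing mice (transplanted tumor) were split into treated and vehicle control groups, and the measured endpoint of each treated group was divided by that of its vehicle controls.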

The mark [1] stands for this setting: endpoint: mean survival time, dose: 100.0 mg/kg/injection, schedule: Q04DX002 (ip), vehicle: saline.
Setting [2] is: endpoint: mean survival time, dose: 200.0 mg/kg/injection, schedule: Q04DX002 (ip), vehicle: saline.
The mark [3] stands for this setting: endpoint: median survival time, dose: 25.0 mg/kg/injection, schedule: Q01DX009 (ip), vehicle: saline with Tween-80.
Where [4] appears, read: endpoint: median survival time, dose: 100.0 mg/kg/injection, schedule: Q01DX009 (ip), vehicle: saline with Tween-80.
The mark [5] stands for this setting: endpoint: median survival time, dose: 200.0 mg/kg/injection, schedule: Q01DX009 (ip), vehicle: saline with Tween-80.
[6] abbreviates: endpoint: mean survival time, dose: 12.5 mg/kg/injection, schedule: Q01DX009 (ip), vehicle: saline with Tween-80.
The mark [7] stands for this setting: endpoint: mean survival time, dose: 25.0 mg/kg/injection, schedule: Q01DX009 (ip), vehicle: saline with Tween-80.
Setting [8] is: endpoint: mean survival time, dose: 100.0 mg/kg/injection, schedule: Q01DX009 (ip), vehicle: saline with Tween-80.
Setting [9] is: endpoint: mean survival time, dose: 200.0 mg/kg/injection, schedule: Q01DX009 (ip), vehicle: saline with Tween-80.
[10] abbreviates: endpoint: mean survival time, dose: 400.0 mg/kg/injection, schedule: Q01DX009 (ip), vehicle: saline with Tween-80.
The mark [11] stands for this setting: endpoint: mean survival time, dose: 100.0 mg/kg/injection, schedule: Q04DX003 (ip), vehicle: saline.
[12] abbreviates: endpoint: mean survival time, dose: 200.0 mg/kg/injection, schedule: Q04DX003 (ip), vehicle: saline.
Where [13] appears, read: endpoint: mean survival time, dose: 400.0 mg/kg/injection, schedule: Q04DX003 (ip), vehicle: saline.

Structures are written as SMILES. Inconclusive results and toxic doses are left out.

With `NC(=S)c1ncn(C2OC(CO)C(O)C2O)c1N` (stereo not drawn), the T/C was 115 % of control under setting [1]; 110 % of control under setting [2]; 111 % of control (endpoint: median survival time, dose: 25.0 mg/kg/injection, schedule: Q01DX005 (ip), vehicle: saline with Tween-80); 113 % of control (endpoint: median survival time, dose: 25.0 mg/kg/injection, schedule: Q01DX005 (ip), vehicle: saline); 122 % of control under setting [3]; 115 % of control (endpoint: median survival time, dose: 25.0 mg/kg/injection, schedule: Q01DX009 (ip), vehicle: saline). Further, the T/C is 120 % of control (endpoint: median survival time, dose: 50.0 mg/kg/injection, schedule: Q01DX005 (ip), vehicle: saline with Tween-80); 166 % of control (endpoint: median survival time, dose: 100.0 mg/kg/injection, schedule: Q01DX005 (ip), vehicle: saline); 160 % of control under setting [4]; 171 % of control (endpoint: median survival time, dose: 200.0 mg/kg/injection, schedule: Q01DX005 (ip), vehicle: saline with Tween-80); 166 % of control (endpoint: median survival time, dose: 200.0 mg/kg/injection, schedule: Q01DX005 (ip), vehicle: saline); 159 % of control under setting [5]. Further, the T/C was 157 % of control (endpoint: median survival time, dose: 200.0 mg/kg/injection, schedule: Q01DX009 (ip), vehicle: saline); 161 % of control (endpoint: median survival time, dose: 400.0 mg/kg/injection, schedule: Q01DX005 (ip), vehicle: saline with Tween-80); 180 % of control (endpoint: median survival time, dose: 400.0 mg/kg/injection, schedule: Q01DX005 (ip), vehicle: saline); 160 % of control (endpoint: median survival time, dose: 400.0 mg/kg/injection, schedule: Q01DX009 (ip), vehicle: saline with Tween-80); 155 % of control (endpoint: median survival time, dose: 400.0 mg/kg/injection, schedule: Q01DX009 (ip), vehicle: saline).
Turning to `C[As](C)[Se]CC1OC(O)C(O)C(O)C1O` (stereo not drawn), the T/C was 97 % of control (endpoint: mean survival time, dose: 12.5 mg/kg/injection, schedule: Q04DX003 (ip), vehicle: saline with Tween-80); 101 % of control (endpoint: mean survival time, dose: 25.0 mg/kg/injection, schedule: Q04DX003 (ip), vehicle: saline with Tween-80); 98 % of control (endpoint: mean survival time, dose: 50.0 mg/kg/injection, schedule: Q04DX003 (ip), vehicle: saline with Tween-80).
For the molecule `CC1CC(O)C(=O)C(O[C@@H]2C[C@@H]3CC[C@@H]4[C@H](CC[C@]5(C)C(C6=CC(=O)OC6)CC[C@]45O)[C@@]3(C=O)C[C@H]2O)O1` (stereo partly drawn), the T/C is 104 % of control (endpoint: mean survival time, dose: 6.25 mg/kg/injection, schedule: Q01DX001 (ip), vehicle: saline with Tween-80) and 104 % of control (endpoint: mean survival time, dose: 12.5 mg/kg/injection, schedule: Q01DX001 (ip), vehicle: saline with Tween-80).
In the case of `CC(=S)NC(O)C(=O)c1ccccc1` (stereo not drawn), the T/C reads like this: under setting [6], 101 % of control; under setting [7], 98 % of control; (endpoint: mean survival time, dose: 50.0 mg/kg/injection, schedule: Q01DX009 (ip), vehicle: saline with Tween-80) 98 % of control; under setting [8], 104 % of control; under setting [9], 93 % of control; under setting [10], 115 % of control.
Turning to `CCSSCCN`, the T/C was 94 % of control (endpoint: mean survival time, dose: 100.0 mg/kg/injection, schedule: Q01DX009 (ip), vehicle: saline); 93 % of control under setting [11]; 93 % of control (endpoint: mean survival time, dose: 200.0 mg/kg/injection, schedule: Q01DX009 (ip), vehicle: saline); 89 % of control under setting [12]; 102 % of control (endpoint: mean survival time, dose: 400.0 mg/kg/injection, schedule: Q01DX009 (ip), vehicle: saline); 97 % of control under setting [13].
For the molecule `COC(=O)c1ccccc1NC1OC(CO)C(O)C1O` (stereo not drawn), the T/C (endpoint: mean survival time, dose: 100.0 mg/kg/injection, schedule: Q01DX001 (ip), vehicle: saline) is 101 % of control; the T/C (endpoint: mean survival time, dose: 200.0 mg/kg/injection, schedule: Q01DX001 (ip), vehicle: saline) was 92 % of control; the T/C (endpoint: mean survival time, dose: 400.0 mg/kg/injection, schedule: Q01DX001 (ip), vehicle: saline) was 91 % of control.
Take `Nc1cc(I)c2cccnc2c1O`: the T/C is, setting by setting: (endpoint: mean survival time, dose: 6.25 mg/kg/injection, schedule: Q01DX009 (ip), vehicle: saline) 96 % of control; (endpoint: mean survival time, dose: 12.5 mg/kg/injection, schedule: Q01DX009 (ip), vehicle: saline) 111 % of control; (endpoint: mean survival time, dose: 25.0 mg/kg/injection, schedule: Q01DX009 (ip), vehicle: saline) 100 % of control; (endpoint: mean survival time, dose: 50.0 mg/kg/injection, schedule: Q01DX009 (ip), vehicle: saline) 108 % of control.
For `O=C(O)CNCNCC(=O)O`, the T/C runs as follows: under setting [1], 90 % of control; under setting [2], 86 % of control.
`CCC(C)C(C)OC(=O)c1cc([N+](=O)[O-])cc([N+](=O)[O-])c1` (stereo not drawn): the T/C by setting is: under setting [8], 105 % of control; (endpoint: mean survival time, dose: 100.0 mg/kg/injection, schedule: Q04DX003 (ip), vehicle: saline with Tween-80) 92 % of control; under setting [9], 104 % of control; (endpoint: mean survival time, dose: 200.0 mg/kg/injection, schedule: Q04DX003 (ip), vehicle: saline with Tween-80) 97 % of control; under setting [10], 90 % of control; (endpoint: mean survival time, dose: 400.0 mg/kg/injection, schedule: Q04DX003 (ip), vehicle: saline with Tween-80) 103 % of control.
For `O=C=Nc1ccc(Cl)c(Cl)c1` (tested in a mixture with another compound), the T/C (endpoint: mean survival time, dose: 50.0 mg/kg/injection, schedule: Q04DX002 (ip), vehicle: saline with Tween-80) was 97 % of control; the T/C (endpoint: mean survival time, dose: 100.0 mg/kg/injection, schedule: Q04DX002 (ip), vehicle: saline with Tween-80) was 108 % of control; the T/C (endpoint: mean survival time, dose: 200.0 mg/kg/injection, schedule: Q04DX002 (ip), vehicle: saline with Tween-80) is 93 % of control; the T/C (endpoint: mean survival time, dose: 400.0 mg/kg/injection, schedule: Q04DX002 (ip), vehicle: saline with Tween-80) was 89 % of control.
Consider `CC(O)(c1ccccc1)c1ccccc1`, for which the T/C reads like this: under setting [8], 104 % of control; under setting [9], 102 % of control; under setting [10], 96 % of control.
With `O=C1c2ccccc2SCCC1C(O)c1ccccc1` (stereo not drawn), the T/C runs as follows: (endpoint: mean survival time, dose: 100.0 mg/kg/injection, schedule: Q01DX001 (ip), vehicle: saline with Tween-80) 94 % of control; (endpoint: mean survival time, dose: 200.0 mg/kg/injection, schedule: Q01DX001 (ip), vehicle: saline with Tween-80) 94 % of control; (endpoint: mean survival time, dose: 400.0 mg/kg/injection, schedule: Q01DX001 (ip), vehicle: saline with Tween-80) 94 % of control.
In the case of `CCCCOP(=O)(OCCCC)OC(=C(Cl)Cl)P(=O)(OCCCC)OCCCC`, the T/C is, setting by setting: under setting [1], 89 % of control; under setting [2], 92 % of control.
As for `CCCCCC1c2cc(O)ccc2OC1N1CCOCC1` (stereo not drawn), the T/C reads like this: (endpoint: median survival time, dose: 12.0 mg/kg/injection, schedule: Q01DX009 (ip), vehicle: saline with Tween-80) 108 % of control; under setting [3], 106 % of control; (endpoint: median survival time, dose: 50.0 mg/kg/injection, schedule: Q01DX009 (ip), vehicle: saline with Tween-80) 97 % of control; under setting [4], 102 % of control; under setting [5], 98 % of control.
Regarding `CC(C)=CCO`, the T/C under setting [11] is 105 % of control, the T/C under setting [12] is 94 % of control and the T/C under setting [13] is 94 % of control.
With `CC(=O)N1C(=O)C2(Nc3cccnc3N2)c2ccccc21` (stereo not drawn), the T/C was 97 % of control (endpoint: mean survival time, dose: 100.0 mg/kg/injection, schedule: Q04DX003 (ip), vehicle: saline sonified); 88 % of control (endpoint: mean survival time, dose: 200.0 mg/kg/injection, schedule: Q04DX003 (ip), vehicle: saline sonified); 103 % of control (endpoint: mean survival time, dose: 400.0 mg/kg/injection, schedule: Q04DX003 (ip), vehicle: saline sonified).
Turning to `CCCCOc1cc(C(=O)NCCN(CC)CC)c2ccccc2n1`, the T/C is 102 % of control (endpoint: mean survival time, dose: 6.25 mg/kg/injection, schedule: Q01DX009 (ip), vehicle: saline with Tween-80); 108 % of control under setting [6]; 103 % of control under setting [7].
As to `COC(=O)C1CC[N-]CC1.COC(=O)C1CC[N-]CC1.[Cl][Pt+2][Cl]`, the T/C reads like this: under setting [8], 115 % of control; under setting [9], 114 % of control.
As for `CCNc1ncnc2nncnc12`, the T/C (endpoint: mean survival time, dose: 100.0 mg/kg/injection, schedule: Q01DX001 (ip), vehicle: carboxymethylcellulose (CMC)) was 98 % of control.
